Values joined by “and” are separate entries in the source; they are usually repeats but may differ in a detail not shown here. Identical values can stand only once.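 How tested: cells in 96-well plates exposed to compound for 48 hours at five concentrations. GI50 is the concentration that inhibits growth by half. TGI: total growth inhibition.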
Experiments:
Assay in all cases: inhibition of tumour cell growth, NCI panel, 48 h
[1] = test system: HOP-62 NSCLC
[2] = test system: COLO 205 colon
[3] = test system: TK-10 renal
[4] = test system: SF-539 CNS
[5] = test system: SR leukemia
[6] = test system: A549 NSCLC
[7] = test system: SNB-75 CNS
[8] = test system: ACHN renal
[9] = test system: SK-MEL-28 melanoma
[10] = test system: T-47D breast

| SMILES | TGI [1] | TGI [2] | TGI [3] | TGI [4] | TGI [5] | TGI [6] | TGI [7] | TGI [8] | TGI [9] | GI50 [1] | GI50 [2] | GI50 [3] | GI50 [4] | GI50 [6] | GI50 [10] | TGI [10] | GI50 [7] | GI50 [8] | GI50 [9] | GI50 [5] |
| --- | --- | --- | --- | --- | --- | --- | --- | --- | --- | --- | --- | --- | --- | --- | --- | --- | --- | --- | --- | --- |
| COCCNC(=O)C1C(=O)C(=O)N(CCOC)C1=O (stereo not given) | > 100 µM | > 100 µM | > 100 µM | > 100 µM | > 100 µM | > 100 µM | > 100 µM | > 100 µM | > 100 µM |  |  |  |  |  |  |  |  |  |  |  |
| Cc1ccc(C)c(N2C(=O)C(=O)C(c3nc4ccccc4s3)/C(=N/NC(=O)NN)C2=O)c1 (stereo not given) | > 100 µM | > 100 µM | > 100 µM | > 100 µM | > 100 µM | > 100 µM | > 100 µM | > 100 µM | > 100 µM |  |  |  |  |  |  |  |  |  |  |  |
| N#CCCN1C/C(=C/c2ccc(Cl)cc2)C(=O)/C(=C/c2ccc(Cl)cc2)C1 | 2.94 µM | 2.64 µM | 4.86 µM | 2.74 µM |  | 10.4 µM | 6.8 µM | 3.28 µM | 3.9 µM | 0.516 µM | 1.25 µM | 2.08 µM | 1.32 µM | 1.89 µM | 3.12 µM | 13.8 µM | 2.19 µM | 1.63 µM | 1.91 µM |  |
| N#CC1=C(/N=C/c2ccccc2)Oc2c(ccc3ccccc23)C1c1ccccc1 (stereo not given) | > 100 µM |  | > 100 µM | 2.06 µM | > 100 µM | > 100 µM |  | > 100 µM | > 100 µM | 0.646 µM | 0.594 µM | 13.7 µM | 0.335 µM | 0.95 µM |  |  |  | 0.591 µM |  | 0.409 µM |
| C[CH2][Sn]([CH2]C)([O]C(=O)c1ccccc1OC)[O][Sn]([CH2]C)([CH2]C)[O]C(=O)c1ccccc1OC | > 100 µM | > 100 µM | > 100 µM | > 100 µM | > 100 µM | > 100 µM | > 100 µM | > 100 µM | > 100 µM | > 100 µM | > 100 µM | > 100 µM | > 100 µM | > 100 µM |  |  | > 100 µM | > 100 µM | > 100 µM | > 100 µM |
| O=[N+]([O-])c1ccc(N2CCOCC2)c2c1no[n+]2[O-] | 6.58 µM | 2.24 µM | 16.7 µM | 2.27 µM |  | 6.28 µM | 5.56 µM | 3.15 µM | 16 µM | 1.61 µM | 0.906 µM | 3.85 µM | 1.07 µM | 1.9 µM | 1.14 µM | 4.58 µM | 0.822 µM | 0.528 µM | 4.32 µM |  |
| COC(=O)[C@@]1(C(C)CC(=O)O)CCCCC1=O (stereo not given in full) | > 100 µM | > 100 µM | > 100 µM | > 100 µM | > 100 µM | > 100 µM | > 100 µM | > 100 µM | > 100 µM |  |  |  |  |  |  |  |  |  |  |  |
| C=C1CCC2[C@@H](CCC3[C@]2(C)CCC[C@]3(C)C(=O)OC)C1CC=O (stereo not given in full) | 39.8 µM | 35.5 µM | 26.6 µM | 31.1 µM |  | 42.5 µM |  | 30 µM | 30.7 µM | 21.2 µM |  | 13.2 µM |  | 21 µM |  |  |  |  |  |  |
| CCCCCO/N=C\c1c2c(O)c3c(O)c(C)c4c(c3c1O)C(=O)C(C)(O/C=C\C(OC)C(C)C(OC(C)=O)C(C)C(O)C(C)C(O)C(C)/C=C\C=C(\C)C(=O)N2)O4 (stereo not given) | 3.04 µM | 2.85 µM |  | 3.86 µM | 7.34 µM | 3.39 µM | 2.87 µM | 3.33 µM | 3.02 µM | 1.65 µM | 1.52 µM |  | 1.98 µM | 1.8 µM | 2.15 µM | 5.33 µM | 1.46 µM | 1.8 µM | 1.66 µM | 2.88 µM |
| NC(=O)C(=O)C1CCC2=C(Sc3ccccc3N2)C1=O (stereo not given) | > 100 µM | > 100 µM | > 100 µM | > 100 µM |  | > 100 µM | > 100 µM | > 100 µM | > 100 µM |  |  |  |  |  |  |  |  |  |  |  |
| Nc1c([N+](=O)[O-])nc(Cl)c2nncn12 | > 100 µM | > 65 µM | > 100 µM | > 100 µM | 41.9 µM | > 100 µM | > 77.7 µM | > 100 µM | > 100 µM |  |  |  |  |  |  |  |  |  |  |  |
| N#CC(C#N)c1ccc(C(=O)N2CCC[C@H]2CO)cc1 | > 100 µM | > 100 µM | > 100 µM | > 100 µM |  | > 100 µM | > 100 µM | > 100 µM | > 100 µM |  |  |  |  |  |  |  |  |  |  |  |
| COc1ccc(-c2cc(C(=O)Nc3ccc(C)c(C)c3)nc(NC#N)n2)cc1 |  | > 100 µM | > 100 µM | > 100 µM |  | > 100 µM | > 100 µM | > 100 µM | > 100 µM |  |  |  |  |  |  |  |  |  |  |  |
| Cc1ccccc1NC(=O)C(=O)C(C#N)c1ccccc1C (stereo not given) | > 100 µM | > 100 µM | > 100 µM | > 100 µM | > 100 µM | > 100 µM | > 100 µM | > 100 µM | > 100 µM |  |  |  |  |  |  |  |  |  |  |  |
| COCOCC/C=C/C=O |  | > 100 µM | > 100 µM | > 100 µM | > 100 µM | > 100 µM | > 100 µM | > 100 µM | > 100 µM |  |  |  |  |  |  |  |  |  |  |  |
| Cc1ccc(S(=O)(=O)N/N=C(/CC(=O)c2c(C)n([O-])c3ccccc3[n+]2=O)C(=O)Nc2ccccc2C)cc1 | > 100 µM | > 100 µM |  | > 100 µM | > 100 µM | > 100 µM | > 100 µM | > 100 µM | > 100 µM |  |  |  |  |  |  |  |  |  |  |  |
| CC1(C)CC(=O)C(/C(=N/NC(=S)NN)C(=O)Nc2nc3ccc([N+](=O)[O-])cc3s2)C(=O)C1 | > 100 µM | > 100 µM | > 100 µM | > 100 µM | > 100 µM | > 100 µM | > 100 µM | > 100 µM | > 100 µM |  |  |  |  |  |  |  |  |  |  |  |
| CC(C)(Br)C(=O)C(Br)Br | > 56.5 µM and 104 µM | 7.04 µM and 8.3 µM | 23.5 µM and 9.15 µM | > 48.2 µM and 9.97 µM |  | 37.3 µM and 41 µM | 26.7 µM and 9.38 µM | 22.5 µM and 9.58 µM | 22.1 µM and 9.12 µM | 59.7 µM | 4.06 µM | 4.95 µM | 5.42 µM | 11 µM |  |  | 5.04 µM | 5.34 µM | 4.93 µM |  |

From PubChem BioAssay (NCI)
